Data from ChEMBL document CHEMBL1156000, “Synthesis of 2alpha-substituted-14-epi-previtamin D3 and its genomic activity” (Bioorg Med Chem Lett, 2009).
Calls of active or inactive are those of the source. The calls are words filed in the database; no cut-off is given here.

What was measured:
[1] = molecular target: T1, Vitamin D3 receptor (Homo sapiens) (UniProt P11473); settings: HOS
T1 sequence (whole entry): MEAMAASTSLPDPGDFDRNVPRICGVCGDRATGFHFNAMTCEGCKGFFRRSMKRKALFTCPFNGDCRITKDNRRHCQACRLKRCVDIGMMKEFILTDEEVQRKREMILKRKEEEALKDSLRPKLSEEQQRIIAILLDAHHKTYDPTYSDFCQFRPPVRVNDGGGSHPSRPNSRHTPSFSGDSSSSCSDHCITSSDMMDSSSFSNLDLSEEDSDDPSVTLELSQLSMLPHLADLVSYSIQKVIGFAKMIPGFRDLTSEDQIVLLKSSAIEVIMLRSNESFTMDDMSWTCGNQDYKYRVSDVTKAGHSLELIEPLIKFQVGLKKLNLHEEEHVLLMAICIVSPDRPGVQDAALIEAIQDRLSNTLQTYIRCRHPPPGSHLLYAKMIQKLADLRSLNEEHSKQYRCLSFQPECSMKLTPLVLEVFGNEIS
Description: Agonist activity at human VDR expressed in human HOS cells co-transfected with RXR gene assessed as osteocalcin promoter gene transactivation after 24 hrs by luciferase assay

[2] = molecular target: T2, Vitamin D3 receptor (Gallus gallus) (UniProt O42392); experiment: Displacement of [26,27-methyl-3H]1alpha,25-dihydroxyvitamin D3 from chick intestinal VDR after 1 hr by liquid scintillation counting
T2 sequence (whole entry): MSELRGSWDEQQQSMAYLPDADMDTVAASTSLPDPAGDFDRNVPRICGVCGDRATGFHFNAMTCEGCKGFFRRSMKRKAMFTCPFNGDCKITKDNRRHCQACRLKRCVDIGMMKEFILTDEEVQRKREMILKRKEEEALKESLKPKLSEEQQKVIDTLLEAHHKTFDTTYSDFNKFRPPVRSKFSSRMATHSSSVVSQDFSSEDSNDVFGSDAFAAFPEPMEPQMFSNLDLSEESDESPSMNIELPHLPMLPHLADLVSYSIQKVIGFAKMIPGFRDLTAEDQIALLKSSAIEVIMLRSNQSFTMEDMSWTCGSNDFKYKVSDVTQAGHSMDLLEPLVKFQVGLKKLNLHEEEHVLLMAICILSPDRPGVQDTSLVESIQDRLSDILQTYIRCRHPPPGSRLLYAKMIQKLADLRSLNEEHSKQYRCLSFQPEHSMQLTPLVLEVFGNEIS

Row | ED50 [1] [nM] | relative binding affinity (RBA) [2] | ED50 ([1]; tested as the 2H-labelled form) [nM] | relative binding affinity (RBA) ([2]; tested as the 2H-labelled form) | Structure (SMILES)
1 | 5.77 | Active | – | – | CCCC[C@H]1[C@H](O)CC(/C=C\C2=CCC[C@@]3(C)[C@@H]2CC[C@@H]3[C@H](C)CCCC(C)(C)O)=C(C)[C@H]1O
2 | 0.88 | Active | – | – | CC1=C(/C=C\C2=CCC[C@@]3(C)[C@@H]2CC[C@@H]3[C@H](C)CCCC(C)(C)O)C[C@@H](O)[C@H](c2ccccc2)[C@@H]1O
3 | 30.2 | Active | – | – | CC1=C(/C=C\C2=CCC[C@@]3(C)[C@@H]2CC[C@@H]3[C@H](C)CCCC(C)(C)O)C[C@@H](O)[C@H](Cc2ccccc2)[C@@H]1O
4 | – | – | 0.46 | Active | CC1=C(/C=C\C2=CCC[C@@]3(C)[C@@H]2CC[C@@H]3[C@H](C)CCCC(C)(C)O)C[C@@H](O)C[C@@H]1O
5 | 0.95 | Active | – | – | CC1=C(/C=C\C2=CCC[C@@]3(C)[C@@H]2CC[C@@H]3[C@H](C)CCCC(C)(C)O)C[C@@H](O)[C@H](OCCCO)[C@@H]1O
6 | 0.12 | Active | – | – | CC1=C(/C=C\C2=CCC[C@@]3(C)[C@@H]2CC[C@@H]3[C@H](C)CCCC(C)(C)O)C[C@@H](O)[C@H](C)[C@@H]1O
7 | 0.69 | Active | – | – | CC1=C(/C=C\C2=CCC[C@@]3(C)[C@@H]2CC[C@@H]3[C@H](C)CCCC(C)(C)O)C[C@@H](O)[C@H](CCCO)[C@@H]1O
